Results on one compound are retold here after patent publication US20120115801A1, “METHOD FOR OBTAINING A STABLE DISPERSION OF BENZOYL PEROXIDE” (Dow Pharmaceutical Sciences, Inc., priority 2008, published 2012).

Structures are written as SMILES.

Series [1] in a line: benzoyl peroxide wettability study. Type of series: physicochemical. The settings on record: 1.5 g powder, agitated as in Example 1. The protocol:
A benzoyl peroxide wettability study was conducted as follows. 1.5 grams of a hydrous benzoyl peroxide powder was spread on the surface of each of three test fluids contained in glass beakers having about a 5 cm diameter, containing either 30 ml of purified water (Sample A), 30 ml of a fluid composed of 5% propylene glycol and 95% purified water (Sample B), or 30 ml of a fluid composed of 50% propylene glycol and 50% purified water (Sample C). At the bottom of each beaker was a 12 mm×8 mm magnetic stir bar. Each of the fluids, with the benzoyl peroxide powder on the surface, was stirred at 1200 rpm. After 5 and 10 minutes of stirring, the samples were visually inspected for the degree of wetting of the benzoyl peroxide. Good wetting was evidenced by visual determination of little or no agglomeration and/or crusting. It was determined that the wetting of the benzoyl peroxide in Sample A was poor, with little or no visual evidence of wetting. The wetting of the benzoyl peroxide in Sample B was determined to be good, with visual evidence of wetting of a significant portion of the benzoyl peroxide powder. The wetting of the benzoyl peroxide in Sample C was determined to be very good, with visual evidence of wetting of the majority of the benzoyl peroxide powder.
The wetting study of Example 1 was repeated utilizing 1.5 grams of benzoyl peroxide powder and 30 ml of a fluid composed of 7.5% ethanol and 92.5% water. The fluid with the benzoyl peroxide powder was agitated as described in Example 1. The wetting of the benzoyl peroxide in the fluid was determined to be very good, with visual evidence of wetting of the majority, about 90%, of the benzoyl peroxide powder.
The wetting study of Example 1 was repeated utilizing 1.5 grams of benzoyl peroxide powder and 30 ml of a fluid composed of 20% polyethylene glycol (PEG 200) and 80% water. The fluid with the benzoyl peroxide powder was agitated as described in Example 1. The wetting of the benzoyl peroxide in the fluid was determined to be very good, with visual evidence of wetting of the majority, about 90%, of the benzoyl peroxide powder.

Series [2] is described as follows: visual inspection of the benzoyl peroxide suspension and wet-milling (Gaulin Mill) to a micro-suspension. The settings on record: for stability of micro-suspension after wet-milling: Gaulin Mill, no surfactants. As for the experimental part: A suspension was prepared containing 33.2% w/w hydrous benzoyl peroxide utilizing a dispersing fluid containing 34.0% w/w propylene glycol and 66% w/w water. Into a 200 gallon stainless steel tank, 175 kg of purified water and 90 kg of propylene glycol were combined. The combination was agitated with a propeller mixer to form a mixture. While mixing, 132 kg of hydrous benzoyl peroxide. (74.5% benzoyl peroxide) powder was added. Mixing continued at 1024 rpm for about 20 minutes to wet and disperse the benzoyl peroxide powder and to obtain a benzoyl peroxide suspension.
The suspension was passed through a Gaulin Mill for micronization using a wet-milling method. […] The propylene glycol content was diluted upon incorporation of benzoyl peroxide suspension into the final topical dosage form to make the 6.26% benzoyl peroxide gel.
A suspension was prepared containing 24.8% w/w hydrous benzoyl peroxide utilizing a dispersing fluid containing 9.4% w/w propylene glycol and 90.6% w/w water. Into a stainless steel tank, 36 kg of purified water and 3.75 kg of propylene glycol were combined. The combination was agitated with a propeller mixer to form a mixture. While mixing, 13.12 kg of hydrous benzoyl peroxide (74.5% benzoyl peroxide) was added. Mixing continued at 1450 rpm for about 10 minutes to wet and disperse the benzoyl peroxide powder and to obtain a benzoyl peroxide suspension.
This suspension was transferred to a Gaulin Mill for micronization using a wet-milling method.
A suspension was prepared containing 24.7% benzoyl peroxide (hydrous) utilizing a dispersing fluid containing 47.6% w/w propylene glycol and 52.4% w/w water. Into a stainless steel tank, 27.5 kg of purified water and 25 kg of propylene glycol were combined. The combination was agitated with a propeller mixer to form a mixture. While mixing, 17.19 kg of hydrous benzoyl peroxide (74.5% benzoyl peroxide) was added. Mixing continued at 858 rpm for about 1 hour to wet and disperse the benzoyl peroxide powder and to obtain a benzoyl peroxide suspension.
This suspension was passed through a Gaulin Mill for micronization using a wet-milling method. […] The propylene glycol content was diluted upon combining the benzoyl peroxide suspension with the clindamycin solution to form the final pharmaceutical product.

Setting [3] is: 30 ml fluid of 7.5% ethanol and 92.5% water.
[4] abbreviates: 30 ml fluid of 20% polyethylene glycol (PEG 200) and 80% water.

On to `O=C(OOC(=O)c1ccccc1)c1ccccc1` [benzoyl peroxide], for which the “portion of the benzoyl peroxide powder wetted (visual evidence)” value in series [1] (setting [3]) and in series [1] (setting [4]) was “about 90%” throughout. The “wetting of the benzoyl peroxide in the fluid (visual)” value in series [1] (setting [3]) and in series [1] (setting [4]) was “very good” throughout. Also, the “stability of micro-suspension after wet-milling” value in series [2] (Example 2: 33.2% w/w hydrous benzoyl peroxide in 34.0% w/w propylene glycol / 66% w/w water), in series [2] (Example 3: 24.8% w/w hydrous benzoyl peroxide in 9.4% w/w propylene glycol / 90.6% w/w water) and in series [2] (Example 4: 24.7% benzoyl peroxide (hydrous) in 47.6% w/w propylene glycol / 52.4% w/w water) was “stable” throughout. The “appearance of suspension upon visual inspection” value in series [2] (Example 2: 33.2% w/w hydrous benzoyl peroxide in 34.0% w/w propylene glycol / 66% w/w water, mixed 1024 rpm about 20 minutes) was “smooth and free of lumps”; in series [2] (Example 3: 24.8% w/w hydrous benzoyl peroxide in 9.4% w/w propylene glycol / 90.6% w/w water, mixed 1450 rpm about 10 minutes), “smooth and free of lumps”. Further, in series [2] (Example 4: 24.7% benzoyl peroxide (hydrous) in 47.6% w/w propylene glycol / 52.4% w/w water, mixed 858 rpm about 1 hour), the “appearance of suspension upon visual observation” value was “smooth and free of lumps”.
